Here are results for 38 molecules from patent US6977262B2, “Dihydropyrazolopyridine compounds and pharmaceutical use thereof” (Mitsubishi Pharma Corporation, priority 2001, dated 2005).

A word on the melting point: it is the temperature, or range, at which the solid turns liquid.

Structures can show the parent of a compound that is named as a salt.

`CCOC(=O)C1=C(c2cccs2)Nc2n[nH]cc2C1c1ccccc1Cl` (centres unmarked) [Example 87, Ethyl 4-(2-chlorophenyl)-4,7-dihydro-6-(thiophen-2-yl)-2H-pyrazolo[3,4-b]pyridine-5-carboxylate] returned a melting point of 200 °C.
To `CCCC1=C(C#N)C(c2ccccc2SC)c2c[nH]nc2N1` (centres unmarked) [Example 130, 5-Cyano-4,7-dihydro-4-(2-methylthiophenyl)-6-propyl-2H-pyrazolo[3,4-b]pyridine] belongs 216 °C; to `CC(=O)C1=C(C#N)C(c2cccc(C#N)c2Br)c2c[nH]nc2N1` (centres unmarked) [Example 1081, 6-Acetyl-4-(2-bromo-3-cyanophenyl)-5-cyano-4,7-dihydro-2H-pyrazolo[3,4-b]pyridine], over 230 °C.
The same measure for `CCCC1=C(C#N)C(c2cccc3nsnc23)c2c[nH]nc2N1` (centres unmarked) [Example 138, 4-(2,1,3-Benzothiadiazol-4-yl)-5-cyano-4,7-dihydro-6-propyl-2H-pyrazolo[3,4-b]pyridine]: 195 °C; for `CCCC1=C(C(=O)OCC)C(c2ccoc2C)c2c[nH]nc2N1` (centres unmarked) [Example 61, Ethyl 4,7-dihydro-4-(2-methylfuran-3-yl)-6-propyl-2H-pyrazolo[3,4-b]pyridine-5-carboxylate]: 123 to 125 °C.
To `CC(C)(C)OC(=O)n1cc(C2=C(C#N)C(c3cccc4nonc34)c3c[nH]nc3N2)c2ccccc21` (centres unmarked) [Example 334, 4-(2,1,3-Benzoxadiazol-4-yl)-5-cyano-6-(1-t-butoxycarbonylindol-3-yl)-4,7-dihydro-2H-pyrazolo[3,4-b]pyridine] belongs 202 °C; to `N#CC1=C(C2CCCNC2)Nc2n[nH]cc2C1c1cccc2nonc12` (centres unmarked) [Example 1005, 4-(2,1,3-Benzoxadiazol-4-yl)-5-cyano-4,7-dihydro-6-(piperidin-3-yl)-2H-pyrazolo[3,4-b]pyridine], 202 °C; to `Cc1cccc(C2C(C#N)=C(C(C)C)Nc3n[nH]cc32)c1[N+](=O)[O-]` (centres unmarked) [Example 339, 5-Cyano-4,7-dihydro-4-(3-methyl-2-nitrophenyl)-6-isopropyl-2H-pyrazolo[3,4-b]pyridine], 261 °C.
`CN(CC1=C(C#N)C(c2cccc3nonc23)c2c[nH]nc2N1)C(=O)OC(C)(C)C` (centres unmarked) [Example 1020, 4-(2,1,3-Benzoxadiazol-4-yl)-6-((N-t-butoxycarbonyl-N-methylamino)methyl)-5-cyano-4,7-dihydro-2H-pyrazolo[3,4-b]-pyridine] registered a melting point of 207 °C.
The same measure for `CCOC(=O)C1=C(C(F)(F)F)Nc2n[nH]cc2C1c1ccc(C(=O)OCC)cc1` (centres unmarked) [Example 20, Ethyl 4-(4-ethoxycarbonylphenyl)-4,7-dihydro-6-trifluoromethyl-2H-pyrazolo[3,4-b]pyridine-5-carboxylate]: 157 to 160 °C; for `N#CC1=C(C2CNCCO2)Nc2n[nH]cc2C1c1cccc(C#N)c1Br.O=C(O)C(F)(F)F` (centres unmarked): 236 °C.
The molecule `CC(C)(C)OC(=O)N1CCC(C2=C(C#N)C(c3cccc4nonc34)c3c[nH]nc3N2)CC1` (centres unmarked) [Example 1001, 4-(2,1,3-Benzoxadiazol-4-yl)-6-(1-t-butoxycarbonylpiperidin-4-yl)-5-cyano-4,7-dihydro-2H-pyrazolo[3,4-b]pyridine] showed a melting point of 226 °C.
`N#CC1=C(c2ccccc2)Nc2n[nH]cc2C1c1cccc2ccccc12` (centres unmarked) [Example 146, 5-Cyano-4,7-dihydro-4-(naphthalen-1-yl)-6-phenyl-2H-pyrazolo[3,4-b]pyridine] returned a melting point of 174 °C.
To `CCCC1=C([N+](=O)[O-])C(c2cccc3ccccc23)c2c[nH]nc2N1` (centres unmarked) [Example 123, 4,7-Dihydro-4-(naphthalen-1-yl)-5-nitro-6-propyl-2H-pyrazolo[3,4-b]pyridine] belongs 226 °C; to `CC(C)C1=C(C#N)C(c2ccccc2Cl)c2c[nH]nc2N1` (centres unmarked) [Example 203, 4-(2-Chlorophenyl)-5-cyano-4,7-dihydro-6-isopropyl-2H-pyrazolo[3,4-b]pyridine], over 250 °C.
The same measure for `Cl.N#CC1=C(C2CCNCC2)Nc2n[nH]cc2C1c1cccc(C#N)c1Br` (centres unmarked): over 270 °C.
Consider `CC(C)(C)C1=C(C#N)C(c2cccc(C#N)c2Br)c2c[nH]nc2N1` (centres unmarked) [Example 319, 4-(2-Bromo-3-cyanophenyl)-6-t-butyl-5-cyano-4,7-dihydro-2H-pyrazolo[3,4-b]pyridine], for which the melting point came to 251 °C.
To `CCCC1=C(C(=O)OCC)C(c2ccccc2Cl)c2cn(C(=O)c3ccccc3)nc2N1` (centres unmarked) [Example 211, Ethyl 2-benzoyl-4-(2-chlorophenyl)-4,7-dihydro-6-propyl-2H-pyrazolo[3,4-b]pyridine-5-carboxylate] belongs 119 to 121 °C.
As to `N#CC1=C(C2CCCCC2)Nc2n[nH]cc2C1c1cccc2nonc12` (centres unmarked) [Example 323, 4-(2,1,3-Benzoxadiazol-4-yl)-5-cyano-6-cyclohexyl-4,7-dihydro-2H-pyrazolo[3,4-b]pyridine], the melting point is 210 °C.
To `CCCC1=C([N+](=O)[O-])C(c2cccc3c2OCCC3)c2c[nH]nc2N1` (centres unmarked) [Example 124, 4,7-Dihydro-4-(3,4-dihydro-2H-benzopyran-8-yl)-5-nitro-6-propyl-2H-pyrazolo[3,4-b]pyridine] belongs 234 °C.
`CCCC1=C(C(=O)OCC)C(c2ccccc2Br)c2c[nH]nc2N1` (centres unmarked) [Example 29, Ethyl 4-(2-bromophenyl)-4,7-dihydro-6-propyl-2H-pyrazolo[3,4-b]pyridine-5-carboxylate] returned a melting point of 223 °C.
The same measure for `CC(C)C1=C(C#N)C(c2cccc(N3CCOCC3)c2)c2c[nH]nc2N1` (centres unmarked) [Example 365, 5-Cyano-4,7-dihydro-4-(3-(morpholin-4-yl)phenyl)-6-isopropyl-2H-pyrazolo[3,4-b]pyridine]: 254 to 257 °C.
Molecule `N#CC1=C(c2ccccc2)Nc2n[nH]cc2C1c1cccc(Cl)c1Cl` (centres unmarked) [Example 145, 5-Cyano-4-(2,3-dichlorophenyl)-4,7-dihydro-6-phenyl-2H-pyrazolo[3,4-b]pyridine] displayed a melting point of 162 °C.
To `CCCC1=C(C#N)C(c2ccccc2Cl)c2c(n[nH]c2-c2cccc3ccccc23)N1` (centres unmarked) [Example 300, 4-(2-Chlorophenyl)-5-cyano-4,7-dihydro-3-(naphthalen-1-yl)-6-propyl-2H-pyrazolo[3,4-b]pyridine] belongs 254 °C; to `CC(C)C1=C(C#N)C(c2cccc3nocc23)c2c[nH]nc2N1` (centres unmarked) [Example 332, 4-(2,1-Benzoisoxazol-4-yl)-5-cyano-4,7-dihydro-6-isopropyl-2H-pyrazolo[3,4-b]pyridine], 245 °C; to `CCOC(=O)C1=C(C(F)(F)F)Nc2n[nH]cc2C1c1ccc(OC)cc1` (centres unmarked) [Example 19, Ethyl 4,7-dihydro-4-(4-methoxyphenyl)-6-trifluoromethyl-2H-pyrazolo[3,4-b]pyridine-5-carboxylate], 159 to 161 °C.
The same measure for `CCCC1=C(C(=O)OCC)C(c2cc(F)ccc2OC)c2c[nH]nc2N1` (centres unmarked) [Example 51, Ethyl 4-(5-fluoro-2-methoxyphenyl)-4,7-dihydro-6-propyl-2H-pyrazolo[3,4-b]pyridine-5-carboxylate]: 164 to 167 °C; for `O=C1OCC2=C1C(c1ccccc1Cl)c1c[nH]nc1N2` (centres unmarked) [Example 96, 4-(2-Chlorophenyl)-2,4,7,8-tetrahydrofurano[3,4-b]pyrazolo[4,3-e]pyridin-5-one]: over 270 °C; for `CN1CCCC(C2=C(C#N)C(c3cccc(C#N)c3Br)c3c[nH]nc3N2)C1` (centres unmarked) (as salt: trifluoroacetate) [Example 1041, 4-(2-Bromo-3-cyanophenyl)-5-cyano-4,7-dihydro-6-(1-methylpiperidin-3-yl)-2H-pyrazolo[3,4-b]pyridine]: 174 °C.
Molecule `CC(C)(C)OC(=O)N1CCCC(C2=C(C#N)C(c3cccc4nonc34)c3c[nH]nc3N2)C1` (centres unmarked) [Example 1004, 4-(2,1,3-Benzoxadiazol-4-yl)-6-(1-t-butoxycarbonylpiperidin-3-yl)-5-cyano-4,7-dihydro-2H-pyrazolo[3,4-b]pyridine] yielded a melting point of 229 °C.
The same measure for `CS(=O)(=O)N1CCC(C2=C(C#N)C(c3cccc(C#N)c3Br)c3c[nH]nc3N2)CC1` (centres unmarked) [Example 1053, 4-(2-Bromo-3-cyanophenyl)-5-cyano-4,7-dihydro-6-(1-methanesulfonylpiperidin-4-yl)-2H-pyrazolo[3,4-b]pyridine]: over 280 °C.
The same measure for `CCCC1=C(C(=O)OCC)C(c2cccc3c2OCCC3)c2c[nH]nc2N1` (centres unmarked) [Example 73, Ethyl 4-(3,4-dihydro-2H-benzopyran-8-yl)-4,7-dihydro-6-propyl-2H-pyrazolo[3,4-b]pyridine-5-carboxylate]: 208 °C.
To `CCOC(=O)C1=C(C(F)(F)F)Nc2n[nH]cc2C1c1cccs1` (centres unmarked) [Example 22, Ethyl 4,7-dihydro-4-(thiophen-2-yl)-6-trifluoromethyl-2H-pyrazolo[3,4-b]pyridine-5-carboxylate] belongs 157 to 161 °C.
With `CCC1=C(C#N)C(c2ccccc2[N+](=O)[O-])c2c[nH]nc2N1` (centres unmarked) [Example 192, 5-Cyano-6-ethyl-4,7-dihydro-4-(2-nitrophenyl)-2H-pyrazolo[3,4-b]pyridine], the melting point was 228 to 230 °C (dec.).
As for `CSc1ccccc1C1C(C#N)=C(c2cccs2)Nc2n[nH]cc21` (centres unmarked) [Example 243, 5-Cyano-4,7-dihydro-4-(2-methylthiophenyl)-6-(thiophen-2-yl)-2H-pyrazolo[3,4-b]pyridine], the melting point is 222 °C.
The same measure for `N#CC1=C(C2CC2)Nc2n[nH]cc2C1c1ccccc1[N+](=O)[O-]` (centres unmarked) [Example 272, 5-Cyano-6-cyclopropyl-4,7-dihydro-4-(2-nitrophenyl)-2H-pyrazolo[3,4-b]pyridine]: 236 to 238 °C (dec.); for `CCCC1=C(C(=O)OCC)C(c2cc(OC)ccc2Cl)c2c[nH]nc2N1` (centres unmarked) [Example 52, Ethyl 4-(2-chloro-5-methoxyphenyl)-4,7-dihydro-6-propyl-2H-pyrazolo[3,4-b]pyridine-5-carboxylate]: 182 °C; for `CCCC1=C(C#N)C(c2ccccc2[N+](=O)[O-])c2c[nH]nc2N1` (centres unmarked) [Example 132, 5-Cyano-4,7-dihydro-4-(2-nitrophenyl)-6-propyl-2H-pyrazolo[3,4-b]pyridine]: 216 °C.
